Data as given in patent publication US8591892B2, “FTY720 increases CD74 expression and sensitizes cancer cells to anti-CD74 antibody-mediated cell death” (The Ohio State University, priority 2011, dated 2013).

Key:
four MCL cell lines = assay: Cell viability by annexin-V/PI staining and flow cytometry, four lines together; assay type: cell-based, human; settings: Jeko-1, Z-138 and UPN-1 cell lines, 24 hours
Procedure: FIG. 4. FTY720 sensitizes MCL cell lines and primary patient tumor cells to milatuzumab-mediated cytotoxicity. (A) Four MCL cell lines and primary cells from 6 patients were treated with FTY720 and/or milatuzumab plus cross-linking antibodies at the indicated concentrations. (B) Patient characteristics. (C) Individual patient responses. (D) Representative histograms summarizing patient responses. Cell death was determined by annexin V/PI staining and flow cytometry at 24 hours. Data are shown as the percentage of annexin V−/PI− cells (live cells) and are normalized to untreated controls.
To assess lysosomal volume, FTY720 treated cells were incubated with LYSOTRACKER™ green DND-26. To assess lysosomal membrane permeability, FTY720 treated cells were incubated with acridine orange (MOLECULAR PROBES; INVITROGEN). For analysis of cell viability, MCL cell lines (0.5×10^6/ml) and primary cells (1×10^6/ml) were treated with FTY720, milatuzumab, and the combination of both. […] Cell viability was measured at 24 hours by dual staining with annexin-V FITC and propidium iodide (PI). A total of 10,000 events were collected and analyzed using WinMDI.
The in vitro survival of four MCL cell lines treated with FTY720, milatuzumab in the presence of a cross-linking antibody, and the combination of FTY720 and milatuzumab was determined at 24 hours by annexin-V/PI staining and flow cytometry. […]

human AML cell lines = assay: Proliferation assays, milatuzumab with/without IFN-γ; assay type: cell-based
Procedure: CD74 expression in bone marrow biopsy (BMB) specimens from non-M3 AML patients was evaluated by immunohistochemistry and, for 3 human AML cell lines, by flow cytometry, with/without permeabilization and with/without IFN-γ (40 and 200 U/mL). These cell lines were also tested in proliferation assays for responses to milatuzumab, with/without IFN-γ. In 13/14 BMB specimens, there was moderate to strong CD74 expression by leukemic blasts, which was mostly intracellular, usually with a perinuclear distribution (data not shown). […] IFN-γ induced intracellular CD74 in all 3 lines (from 85%-868%) (not shown).

Aspc-1 = assay: Flow cytometry of CD74, HLA-DR, CEACAM5 with directly labeled MAbs, with and without IFN-γ; assay type: cell-based
Procedure: (§1) Expression of CD74, HLA-DR, and carcinoembryonic antigen (CEACAM5) was determined in untreated cells and cells exposed to 200 U of IFN-γ for 48 h by flow cytometry. Cells were stained with directly labeled MAbs in comparison to a directly labeled human IgG control. Antibodies were labeled using ALEXA FLUOR® 488 (Invitrogen, Carlsbad, Calif.). For determination of cytoplasmic antigen expression, cells were permeabilized prior to staining using the BD CYTOFIX/CYTOPERM™ kit (BD Biosciences, San Jose, Calif.).

BxPC-3 = assay: as above; assay type: cell-based
Procedure: as §1

Capan-1 = assay: as above; assay type: cell-based
Procedure: as §1

FSCCL = assay: as above; assay type: cell-based
Procedure: as §1

KMS11 = assay: as above; assay type: cell-based
Procedure: as §1

LS174T = assay: as above; assay type: cell-based
Procedure: as §1

Moser = assay: as above; assay type: cell-based
Procedure: as §1

RL = assay: as above; assay type: cell-based
Procedure: as §1

TU118 = assay: as above; assay type: cell-based
Procedure: as §1

U118 = assay: as above; assay type: cell-based
Procedure: as §1

WSU-FSCCL NHL cells = assay: Cytotoxicity of milatuzumab with GAH crosslinking, with and without IFN-γ; assay type: cell-based; settings: in vitro
Procedure: (§2) We examined whether the ability of anti-CD74 MAbs to kill cancer cells can be increased by using IFN-γ as an inducer of antigen expression. Using a panel of diverse cancer cell lines (including NHL, MM, GBM, and pancreatic and colonic carcinomas), we examined IFN-γ-induced changes in surface and cytoplasmic CD74 expression. Sensitivity of the malignant cells to milatuzumab was assessed with and without IFN-γ by cytotoxicity assays.
(§3) The cytotoxicity of anti-CD74 antibodies was examined in the presence or absence of IFN-γ (not shown). As previously observed, in vitro cytotoxicity of milatuzumab required crosslinking (Stein, et al., Blood, 104: 3705-11, 2004). Goat anti-human IgG (GAH) was used for crosslinking in these experiments.

[1] = system: Capan-1, Aspc-1, LoVo, HT-29, U87, U118 cells; assay: Cytotoxicity of milatuzumab with and without crosslinking agent or IFN-γ; assay type: cell-based; settings: regardless of crosslinking agent or IFN-γ
Procedure: as §2, §3

[2] = multiple myeloma patients, 1.5 mg/kg twice weekly for 4 weeks; cited from earlier work

milatuzumab: fully humanized monoclonal antibody specific for CD74
activity as single agents (four MCL cell lines): only modest activity | growth inhibition (human AML cell lines; first responding AML line, with IFN-γ): 44.8% | growth inhibition (human AML cell lines; first responding AML line, without IFN-γ): 23.7% | growth inhibition (human AML cell lines; second responding AML line, with IFN-γ): 30.9% | growth inhibition (human AML cell lines; second responding AML line, without IFN-γ): −3.9% | % change of cell surface expression with IFNγ (Aspc-1; Aspc-1): 121.3% | % change of cytoplasmic expression with IFNγ (Aspc-1; Aspc-1): 1451.5% | Cell surface expression (staining with directly labeled MAb) (Aspc-1; Aspc-1 + IFNγ 200 U, 48 h): 7.3 | Cell surface expression (staining with directly labeled MAb) (Aspc-1; Aspc-1, without IFN-γ): 3.3 | % change of cell surface expression with IFNγ (BxPC-3; BxPC-3): 142.2% | % change of cytoplasmic expression with IFNγ (BxPC-3; BxPC-3): 1763.5% | Cell surface expression (staining with directly labeled MAb) (BxPC-3; BxPC-3 + IFNγ 200 U, 48 h): 6.2 | Cell surface expression (staining with directly labeled MAb) (BxPC-3; BxPC-3, without IFN-γ): 2.6 | Cell surface expression (staining with directly labeled MAb) (Capan-1; Capan + IFNγ 200 U, 48 h): 11.1 | % change of cell surface expression with IFNγ (Capan-1; Capan-1): 152.4% | % change of cytoplasmic expression with IFNγ (Capan-1; Capan-1): 561.2% | Cell surface expression (staining with directly labeled MAb) (Capan-1; Capan-1, without IFN-γ): 4.4 | % change of cell surface expression with IFNγ (FSCCL; FSCCL): 32.8% | % change of cytoplasmic expression with IFNγ (FSCCL; FSCCL): 58.5% | Cell surface expression (staining with directly labeled MAb) (FSCCL; FSCCL + IFNγ 200 U, 48 h): 19.0 | Cell surface expression (staining with directly labeled MAb) (FSCCL; FSCCL, without IFN-γ): 14.3 | % change of cell surface expression with IFNγ (KMS11; KMS11): 14.0% | % change of cytoplasmic expression with IFNγ (KMS11; KMS11): −1.9% | Cell surface expression (staining with directly labeled MAb) (KMS11; KMS11 + IFNγ 200 U, 48 h): 5.1 | Cell surface expression (staining with directly labeled MAb) (KMS11; KMS11, without IFN-γ): 4.4 | % change of cell surface expression with IFNγ (LS174T; LS174T): −11.3% | % change of cytoplasmic expression with IFNγ (LS174T; LS174T): 112.7% | Cell surface expression (staining with directly labeled MAb) (LS174T; LS174T + IFNγ 200 U, 48 h): 5.2 | Cell surface expression (staining with directly labeled MAb) (LS174T; LS174T, without IFN-γ): 5.9 | % change of cell surface expression with IFNγ (Moser; Moser): 16.3% | % change of cytoplasmic expression with IFNγ (Moser; Moser): 86.1% | Cell surface expression (staining with directly labeled MAb) (Moser; Moser + IFNγ 200 U, 48 h): 4.8 | Cell surface expression (staining with directly labeled MAb) (Moser; Moser, without IFN-γ): 4.1 | % change of cell surface expression with IFNγ (RL; RL): 23.8% | % change of cytoplasmic expression with IFNγ (RL; RL): 3.7% | Cell surface expression (staining with directly labeled MAb) (RL; RL + IFNγ 200 U, 48 h): 25.0 | Cell surface expression (staining with directly labeled MAb) (RL; RL, without IFN-γ): 20.2 | % change of cell surface expression with IFNγ (TU118; TU118): 167.8% | % change of cytoplasmic expression with IFNγ (TU118; TU118): 374.6% | Cell surface expression (staining with directly labeled MAb) (TU118; TU118 + IFNγ 200 U, 48 h): 19.2 | Cell surface expression (staining with directly labeled MAb) (TU118; TU118, without IFN-γ): 7.17 | % change of cell surface expression with IFNγ (U118; U118): 160.9% | % change of cytoplasmic expression with IFNγ (U118; U118): 428.2% | Cell surface expression (staining with directly labeled MAb) (U118; U118 + IFNγ 200 U, 48 h): 18.3 | Cell surface expression (staining with directly labeled MAb) (U118; U118, without IFN-γ): 7.0 | increased killing after IFN-γ exposure (WSU-FSCCL NHL cells): 33% | cell killing [1]: unable to kill | peak levels [2]: 10 to 20 µg/mL
